Data as given in ChEMBL document CHEMBL3046616, “Design, synthesis, and biological activities of milbemycin analogues” (2011).
Converted amounts (≈) assume the structure as drawn.

Assays:
Type in all cases: functional
[1] = tested on: Aphis fabae; experiment: Insecticidal activity against Aphis fabae (black bean aphid) infested soybean tender shoots at 0.625 mg/L measured 48 hr post compound dose by modified FAO dip method
[2] = tested on: Aphis fabae; experiment: Insecticidal activity against Aphis fabae (black bean aphid) infested soybean tender shoots at 2.5 mg/L measured 48 hr post compound dose by modified FAO dip method
[3] = tested on: Aphis fabae; experiment: Insecticidal activity against Aphis fabae (black bean aphid) infested soybean tender shoots at 10 mg/L measured 48 hr post compound dose by modified FAO dip method
[4] = tested on: Mythimna separata; experiment: Insecticidal activity against Mythimna separata (Oriental armyworm) fourth-instar larvae reared compound pre-treated corn leaves assessed as insect mortality at 0.625 mg/L measured 2 days post compound dose
[5] = tested on: Mythimna separata; experiment: Insecticidal activity against Mythimna separata (Oriental armyworm) fourth-instar larvae reared compound pre-treated corn leaves assessed as insect mortality at 2.5 mg/L measured 2 days post compound dose
[6] = tested on: Mythimna separata; experiment: Insecticidal activity against Mythimna separata (Oriental armyworm) fourth-instar larvae reared compound pre-treated corn leaves assessed as insect mortality at 10 mg/L measured 2 days post compound dose
[7] = tested on: Tetranychus cinnabarinus; experiment: Insecticidal activity against Tetranychus cinnabarinus (carmine spider mite) […] assessed as larvicidal activity at 0.006 mg/L after 48 hr
[8] = tested on: Aphis fabae; experiment: Insecticidal activity against bean Aphis fabae (black bean aphid) infested soybean tender shoots at 0.03125 mg/L measured 48 hr post compound dose by modified FAO dip method
[9] = tested on: Aphis fabae; experiment: Insecticidal activity against Aphis fabae (black bean aphid) infested soybean tender shoots at 0.0625 mg/L measured 48 hr post compound dose by modified FAO dip method
[10] = tested on: Aphis fabae; experiment: Insecticidal activity against Aphis fabae (black bean aphid) infested soybean tender shoots at 0.125 mg/L measured 48 hr post compound dose by modified FAO dip method
[11] = tested on: Aphis fabae; experiment: Insecticidal activity against Aphis fabae (black bean aphid) infested soybean tender shoots at 0.25 mg/L measured 48 hr post compound dose by modified FAO dip method
[12] = tested on: Aphis fabae; experiment: Insecticidal activity against Aphis fabae (black bean aphid) infested soybean tender shoots at 0.5 mg/L measured 48 hr post compound dose by modified FAO dip method
[13] = tested on: Aphis fabae; experiment: Insecticidal activity against Aphis fabae (black bean aphid) infested soybean tender shoots at 1 mg/L measured 48 hr post compound dose by modified FAO dip method
[14] = tested on: Mythimna separata; experiment: Insecticidal activity against fourth-instar larvae of Mythimna separata (Oriental armyworm) reared on compound pre-treated corn leaves assessed as insect mortality at 0.03125 mg/L measured 2 days post compound dose
[15] = tested on: Mythimna separata; experiment: Insecticidal activity against fourth-instar larvae of Mythimna separata (Oriental armyworm) reared on compound pre-treated corn leaves assessed as insect mortality at 0.0625 mg/L measured 2 days post compound dose
[16] = tested on: Mythimna separata; experiment: Insecticidal activity against fourth-instar larvae of Mythimna separata (Oriental armyworm) reared on compound pre-treated corn leaves assessed as insect mortality at 0.125 mg/L measured 2 days post compound dose
[17] = tested on: Mythimna separata; experiment: Insecticidal activity against Mythimna separata (Oriental armyworm) fourth-instar larvae reared compound pre-treated corn leaves assessed as insect mortality at 0.25 mg/L measured 2 days post compound dose
[18] = tested on: Mythimna separata; experiment: Insecticidal activity against Mythimna separata (Oriental armyworm) fourth-instar larvae reared compound pre-treated corn leaves assessed as insect mortality at 0.5 mg/L measured 2 days post compound dose
[19] = tested on: Mythimna separata; experiment: Insecticidal activity against Mythimna separata (Oriental armyworm) fourth-instar larvae reared compound pre-treated corn leaves assessed as insect mortality at 1 mg/L measured 2 days post compound dose
[20] = tested on: Mythimna separata; experiment: Insecticidal activity against Mythimna separata (Oriental armyworm) fourth-instar larvae reared compound pre-treated corn leaves assessed as insect mortality measured 2 days post compound dose
[21] = tested on: Aphis fabae; experiment: Insecticidal activity against Aphis fabae (black bean aphid infested soybean tender shoots measured 48 hr post compound dose by modified FAO dip method
[22] = tested on: Aphis fabae; experiment: Insecticidal activity against Aphis fabae (black bean aphid) infested soybean tender shoots measured 48 hr post compound dose by modified FAO dip method; set-up: concentration or dose not given beside the values
[23] = tested on: Mythimna separata; experiment: Insecticidal activity against Mythimna separata (Oriental armyworm) fourth-instar larvae reared compound pre-treated corn leaves assessed as insect mortality at 200 mg/L measured 2 days post compound dose

**Q.** What does the source list for `CCC(C)[C@H]1O[C@]2(CC[C@@H]1C)C[C@@H]1C[C@@H](C/C=C(\C)[C@@H](O[C@H]3C[C@H](OC)[C@@H](OC(=O)c4ccccc4)[C@H](C)O3)[C@@H](C)/C=C/C=C3\CO[C@@H]4[C@H](O)C(C)=C[C@@H](C(=O)O1)[C@]34O)O2` (stereo partly drawn)?
**A.** mortality at 0.625 µg/mL [1]: 86.3%; mortality at 2.5 µg/mL [2]: 100%; mortality at 10 µg/mL [3]: 100%; mortality at 0.625 µg/mL [4]: 38.8%; mortality at 2.5 µg/mL [5]: 100%; mortality at 10 µg/mL [6]: 100%; mortality at 0.006 µg/mL [7]: 24.8%

**Q.** How did the mortality at 0.625 µg/mL [1] turn out when `CCC(C)[C@H]1O[C@]2(CC[C@@H]1C)C[C@@H]1C[C@@H](C/C=C(\C)[C@@H](O[C@H]3C[C@H](OC)[C@@H](OC(=O)Nc4cccc(C)c4)[C@H](C)O3)[C@@H](C)/C=C/C=C3\CO[C@@H]4[C@H](O)C(C)=C[C@@H](C(=O)O1)[C@]34O)O2` (stereo partly drawn) was run?
**A.** Its mortality at 0.625 µg/mL is 88.5%.

**Q.** What about the mortality at 2.5 µg/mL [2] of the same compound?
**A.** Its mortality at 2.5 µg/mL is 100%.

**Q.** What about the mortality at 10 µg/mL [3] of the same compound?
**A.** The mortality at 10 µg/mL was 100%.

**Q.** What about the mortality at 0.625 µg/mL [4] of the same compound?
**A.** Its mortality at 0.625 µg/mL is 56.3%.

**Q.** And the mortality at 2.5 µg/mL [5]?
**A.** The mortality at 2.5 µg/mL was 98.6%.

**Q.** And the mortality at 10 µg/mL [6]?
**A.** Its mortality at 10 µg/mL is 100%.

**Q.** What about the mortality at 0.006 µg/mL [7] of the same compound?
**A.** The mortality at 0.006 µg/mL was 49.2%.

**Q.** Which mortality at 0.625 µg/mL [1] does the source give for `CCC(C)[C@H]1O[C@]2(CC[C@@H]1C)C[C@@H]1C[C@@H](C/C=C(\C)[C@@H](O[C@H]3C[C@H](OC)[C@@H](OC(=O)C(C)(C)CC)[C@H](C)O3)[C@@H](C)/C=C/C=C3\CO[C@@H]4[C@H](O)C(C)=C[C@@H](C(=O)O1)[C@]34O)O2` (stereo partly drawn) here?
**A.** The mortality at 0.625 µg/mL was 89.1%.

**Q.** And the mortality at 2.5 µg/mL [2]?
**A.** Its mortality at 2.5 µg/mL is 100%.

**Q.** And the mortality at 0.625 µg/mL [4]?
**A.** The mortality at 0.625 µg/mL was 0%.

**Q.** What about the mortality at 2.5 µg/mL [5] of the same compound?
**A.** The mortality at 2.5 µg/mL was 83.6%.

**Q.** What about the mortality at 0.006 µg/mL [7] of the same compound?
**A.** Its mortality at 0.006 µg/mL is 39.6%.

**Q.** How did the mortality at 0.03125 µg/mL [8] turn out when `CCC(C)[C@H]1O[C@]2(CC[C@@H]1C)C[C@@H]1C[C@@H](C/C=C(\C)[C@@H](O[C@H]3C[C@H](OC)[C@@H](OC(=O)Cc4ccccc4)[C@H](C)O3)[C@@H](C)/C=C/C=C3\CO[C@@H]4[C@H](O)C(C)=C[C@@H](C(=O)O1)[C@]34O)O2` (stereo partly drawn) was run?
**A.** The mortality at 0.03125 µg/mL was 0%.

**Q.** And the mortality at 0.0625 µg/mL [9]?
**A.** The mortality at 0.0625 µg/mL was 3.3%.

**Q.** What about the mortality at 0.125 µg/mL [10] of the same compound?
**A.** Its mortality at 0.125 µg/mL is 31.2%.

**Q.** And the mortality at 0.25 µg/mL [11]?
**A.** Its mortality at 0.25 µg/mL is 65.8%.

**Q.** What about the mortality at 0.5 µg/mL [12] of the same compound?
**A.** The mortality at 0.5 µg/mL was 86.7%.

**Q.** And the mortality at 1 µg/mL [13]?
**A.** The mortality at 1 µg/mL was 100%.

**Q.** And the mortality at 0.03125 µg/mL [14]?
**A.** Its mortality at 0.03125 µg/mL is 0%.

**Q.** And the mortality at 0.0625 µg/mL [15]?
**A.** Its mortality at 0.0625 µg/mL is 10.1%.

**Q.** What about the mortality at 0.125 µg/mL [16] of the same compound?
**A.** The mortality at 0.125 µg/mL was 20.5%.

**Q.** And the mortality at 0.25 µg/mL [17]?
**A.** The mortality at 0.25 µg/mL was 60.3%.

**Q.** What about the mortality at 0.5 µg/mL [18] of the same compound?
**A.** Its mortality at 0.5 µg/mL is 90.2%.

**Q.** What about the mortality at 1 µg/mL [19] of the same compound?
**A.** Its mortality at 1 µg/mL is 100%.

**Q.** What about the mortality at 0.006 µg/mL [7] of the same compound?
**A.** The mortality at 0.006 µg/mL was 14.3%.

**Q.** And the LC50 [20]?
**A.** Its LC50 is 0.204 mg/L (≈ 0.24 µM).

**Q.** And the LC90 [21]?
**A.** Its LC90 is 0.742 mg/L (≈ 0.874 µM).

**Q.** What about the LC50 ([21]; Aphis fabae, 48 h) of the same compound?
**A.** Its LC50 is 0.07 mg/L (≈ 0.0824 µM).

**Q.** With `CCC(C)[C@H]1O[C@]2(CC[C@@H]1C)C[C@@H]1C[C@@H](C/C=C(\C)[C@@H](OC(=O)c3ccccc3OC)[C@@H](C)/C=C/C=C3\CO[C@@H]4[C@H](O)C(C)=C[C@@H](C(=O)O1)[C@]34O)O2` (stereo partly drawn) as the compound, how does the mortality [22] read?
**A.** The mortality was 68.6%.

**Q.** What about the mortality at 0.625 µg/mL [4] of the same compound?
**A.** The mortality at 0.625 µg/mL was 19.7%.

**Q.** And the mortality at 2.5 µg/mL [5]?
**A.** Its mortality at 2.5 µg/mL is 77.3%.

**Q.** And the mortality at 10 µg/mL [6]?
**A.** The mortality at 10 µg/mL was 97%.

**Q.** What about the mortality at 0.006 µg/mL [7] of the same compound?
**A.** The mortality at 0.006 µg/mL was 19.5%.

**Q.** How did the mortality [22] turn out when `CCC(C)[C@H]1O[C@]2(CC[C@@H]1C)C[C@@H]1C[C@@H](C/C=C(\C)[C@@H](OC(=O)C3C(C=C(Cl)Cl)C3(C)C)[C@@H](C)/C=C/C=C3\CO[C@@H]4[C@H](O)C(C)=C[C@@H](C(=O)O1)[C@]34O)O2` (stereo partly drawn) was run?
**A.** Its mortality is 87.9%.

**Q.** What about the mortality at 0.625 µg/mL [4] of the same compound?
**A.** The mortality at 0.625 µg/mL was 3.3%.

**Q.** And the mortality at 2.5 µg/mL [5]?
**A.** The mortality at 2.5 µg/mL was 6.4%.

**Q.** And the mortality at 10 µg/mL [6]?
**A.** The mortality at 10 µg/mL was 6.7%.

**Q.** What about the mortality at 0.006 µg/mL [7] of the same compound?
**A.** Its mortality at 0.006 µg/mL is 31.7%.

**Q.** What does the source list for `CCC(C)[C@H]1O[C@]2(CC[C@@H]1C)C[C@@H]1C[C@@H](C/C=C(\C)[C@@H](O[C@H]3C[C@H](OC)[C@@H](OC(=O)c4ccc(Cl)cc4)[C@H](C)O3)[C@@H](C)/C=C/C=C3\CO[C@@H]4[C@H](O)C(C)=C[C@@H](C(=O)O1)[C@]34O)O2` (stereo partly drawn)?
**A.** mortality [22]: 100%; mortality at 0.625 µg/mL [4]: 0%; mortality at 2.5 µg/mL [5]: 16.7%; mortality at 10 µg/mL [6]: 93.9%; mortality at 0.006 µg/mL [7]: 32.3%

**Q.** Which mortality [22] does the source give for `CCC(C)[C@H]1O[C@]2(CC[C@@H]1C)C[C@@H]1C[C@@H](C/C=C(\C)[C@@H](O[C@H]3C[C@H](OC)[C@@H](OC(=O)C4C(C=C(Cl)Cl)C4(C)C)[C@H](C)O3)[C@@H](C)/C=C/C=C3\CO[C@@H]4[C@H](O)C(C)=C[C@@H](C(=O)O1)[C@]34O)O2` (stereo partly drawn) here?
**A.** Its mortality is 92.3%.

**Q.** And the mortality at 200 µg/mL [23]?
**A.** The mortality at 200 µg/mL was 87.2%.

**Q.** And the mortality at 0.006 µg/mL [7]?
**A.** The mortality at 0.006 µg/mL was 11.8%.
